Measured values as given in patent US12643887B2, “Heterocyclic derivatives with cardiomyocyte proliferation activity for treatment of heart diseases” (Tongji University, priority 2019, dated 2026).

Tests used:
human HIPK1 = target: T1, human HIPK1 (Homo sapiens, UniProt Q86Z02); assay: HIPK1 enzyme assay (ADP-Glo); type: biochemical; conditions: ADP-Glo, ATP 5 μM; read-out: HIPK1 IC50
T1 construct: Recombinant human HIPK1 (156-555); GST (N); purchased SignalChem H03-11G; host or cells: Sf9 insect cells
Experimental: The ability of compounds to inhibit human HIPK1 kinase activities was determined using a commercially available ADP-Glo™ Kinase Assay kit (Promega, Cat #V9102) according to the manufacturer's protocol.
Recombinant human HIPK1 (156-555) (expressed in Sf9 insect cells with an N-terminal GST tag) was purchased from SignalChem (Cat #H03-11G). Recombinant full length human MBP (expressed in E. Coli cells with an N-terminal GST tag) was purchased from SignalChem (Cat #M42-54G). This assay, run in a 384-well plate format, is a generic method for measuring kinase activities using an ADP-Glo Kinase Assay Kit. The basic assay procedure involves two steps: (1) Enzymatic step: inhibitors are incubated with the kinase and then ATP (included in the ADP-Glo Kinase Assay Kit) and the MBP protein are added to start the enzymatic reaction; (2) Detection step: after the kinase reaction, first ADP-Glo™ Reagent is added to terminate the kinase reaction and deplete the remaining ATP. Second, the Kinase Detection Reagent is added to simultaneously convert ADP to ATP and allow the newly synthesized ATP to be measured using a luciferase/luciferin reaction. The light generated is measured using a luminometer.
Briefly, HIPK1 (4 nM) in the enzymatic buffer solutions (40 mM Tris, pH 7.5, 20 mM MgCl2, 0.1 mg/ml BSA, 50 μM DTT) were mixed with various concentrations of inhibitors (dissolved in 100% DMSO). These solutions were incubated for 30 minutes at 25° C., and subsequently a mixture of substrate peptide and ATP was added with the final peptide and ATP concentrations at 0.05 mg/ml and 5 μM, respectively. The final reaction mixture of enzyme-substrate-ATP-compound was incubated for 90 minutes at 25° C.
Afterwards ADP-Glo™ Reagent was added and the mixture was incubated at 25° C. for 60 minutes. Then Kinase Detection Reagent was added, and the final mixture was incubated at 25° C. for 60 minutes. The luminescence signal of the final solution was measured on an Envision instrument (PerkinElmer). The percent (%) inhibition at each concentration of a compound is calculated relative to the luminescence signal in the Max and Min control wells contained within each assay plate. […] The concentrations and percent inhibition values for a test compound are plotted and the concentration of the compound required to achieve 50% inhibition (IC50) is determined with a four-parameter logistic dose response equation.

[1] = test system: Neonatal Rat Ventricular Myocytes (NRVMs); assay: Myocyte proliferation assay (EdU assay) in neonatal rat ventricular myocytes; type: cell-based; conditions: growth relative to blank myocyte growth without compound added; for Avg 1 uM (average myocyte proliferation): compound 1 uM; for Avg 3 uM (average myocyte proliferation): compound 3 uM; for Avg 10 uM (average myocyte proliferation): compound 10 uM
Experimental: 1. Isolation of and Culture Neonatal Rat Ventricular Myocytes (NRVMs)
Ventricles from neonatal rats were separated from the atria, cut into small pieces (about 2×2 mm^2) and then dissociated in Ca2+-free HBSS containing 0.125 mg ml-1 trypsin (Gibco), 10 μg ml-1 DNase II (Sigma) and 0.1 mg ml-1 collagenase type IV (Sigma). The digestion was carried out under constant stirring at 37° C. for 5 min. The supernatant was collected with FBS (Gibco) after each digestion period. After digestion, the collected supernatant was centrifuged at 1000 g for 10 min at room temperature, and then cell pellets were resuspended in DMEM (Gibco) supplemented with 10% FBS and with 100 uM 5-bromo-2′-deoxyuridine (Sigma). The resuspended cells were passed through a cell strainer ([…], BD Falcon) and seeded onto 100-mm plastic dishes for 2 h at 37° C. in a 5% CO2 to remove fibroblasts, the supernatant was then collected and plated onto 1% gelatin (Sigma)-coated dishes. 24 h after the seeding, the medium was changed to DMEM (Gibco) containing 2% FBS (Gibco), 1% insulin-transferrin-selenium (ITS; Gibco), 1% Penicillin-Streptomycin (Gibco). After 24 hours of low serum culture, remove the medium with DMEM (Gibco) containing 6% FBS (Gibco), 1% insulin-transferrin-selenium (ITS; Gibco), 1% Penicillin-Streptomycin (Gibco), different concentrations of compounds (the compounds were pre-diluted in the medium and the drug concentration was 10 uM, 3 uM, 1 uM, fully mixed). After 36 h add Edu substrate (Invitrogen) according to the manufacturer's guidelines, and then after 12 h cell can be used.
• 2.1. Immobilization: Remove the medium and fix the cells with […] in 200 ul (whichever is covered) for 15 min and wash the cells twice with 500 ul of PBS for 5 min each time. • 2.2. Broken membrane: Add 200 ul of 0.3% Triton-X 100 (diluted in PBS) to each well, incubate for 10-15 min at room temperature (the time should not be too long), and wash the cells twice with 500 ul of PBS for 5 min each time. • 2.3. Blocking: Add 200 ul of 10% normal goat serum (diluted with 0.1% PBST) to each well, incubate for 1 h at room temperature, and wash twice with 500 ul of 0.1% PBST for 5 min each time. • 2.4. Primary antibody: dilute the primary antibody (abcam, ab8295) to blocking solution at a ratio of 1:200, add 100 ul per well, incubate for 1 h at room temperature (may be slightly longer than 2-3 h), wash the cells twice with 500 ul 0.1% PBST for 5 min each time. • 2.5. Secondary antibody: Dilute the fluorescently labeled secondary antibody (abcam, ab150117) into blocking solution at a ratio of 1:200, add 100 ul per well, incubate for 1 h at room temperature (the time should not be too long), wash the cells twice with 0.1% PBST for 5 min each time, pay attention to the whole process. Protected from light. • 2.6. Edu staining (Invitrogen C10338) • 2.6.1 Prepare Click-iT® reaction cocktail according to Table 3. It was important to add the ingredients in the order listed in the table; otherwise, the reaction would not proceed optimally. Use the Click-iT® reaction cocktail within 15 minutes of preparation.
• 2.6.2 Add 0.1 mL of Click-iT® reaction cocktail to each well containing a coverslip. Rock the plate briefly to ensure that the reaction cocktail is distributed evenly over the coverslip. • 2.6.3 Incubate the plate for 30 minutes at room temperature, protected from light. • 2.6.4 Remove the reaction cocktail, then wash the cells twice with 0.1% PBST for 5 min each time. • 2.7. DAPI staining: DAPI stain was diluted to PBS at a ratio of 1:1000, 100 ul per well, incubated for 30 min at room temperature, and the cells were washed twice with PBS for 5 min each. 3. Data Analysis
We used Molecular Devices' Image Xpress Micro Confocal for high-throughput photo and data analysis.

T1 sequence (Q86Z02 156-555): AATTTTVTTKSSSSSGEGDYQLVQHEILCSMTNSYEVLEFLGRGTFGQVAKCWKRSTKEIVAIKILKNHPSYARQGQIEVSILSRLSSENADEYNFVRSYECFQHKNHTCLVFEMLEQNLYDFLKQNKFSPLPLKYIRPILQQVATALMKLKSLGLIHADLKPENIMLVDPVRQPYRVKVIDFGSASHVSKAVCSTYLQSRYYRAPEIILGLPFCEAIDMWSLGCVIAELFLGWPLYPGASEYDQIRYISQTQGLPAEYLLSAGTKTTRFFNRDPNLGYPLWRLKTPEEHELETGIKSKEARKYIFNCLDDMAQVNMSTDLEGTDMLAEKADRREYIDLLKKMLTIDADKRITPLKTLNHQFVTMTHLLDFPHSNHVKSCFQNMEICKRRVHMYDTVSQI

For `CN(C1=N/C(=C\c2ccc3c(c2)OCO3)C(=O)N1)c1ccccc1` [Example 1, (Z)-5-(benzo[d][1,3]dioxol-5-ylmethylene)-2-(methyl(phenyl)amino)-3,5-dihydro-4H-imidazol-4-one], which IC50 (human HIPK1) is on record?
Its IC50 is greater than 10 µM.

What about the “Avg 1 uM (average myocyte proliferation)” value [1] of the same compound?
Its value is “* (<10% growth relative to blank myocyte growth without compound added.)”.

What about the “Avg 3 uM (average myocyte proliferation)” value [1] of the same compound?
Its value is “*** (>50%)”.

And the “Avg 10 uM (average myocyte proliferation)” value (“Avg 10 uM” below) [1]?
The value was “** (10%-50%)”.

Which results are given for `O=C1/C(=C/c2ccc3c(c2)OCO3)N=C(N(Cc2ccccc2)c2ccccc2)N1Cc1ccccc1` [Example 2, (Z)-5-(benzo[d][1,3]dioxol-5-ylmethylene)-3-benzyl-2-(benzyl(phenyl)amino)-3,5-dihydro-4H-imidazol-4-one]?
IC50 (human HIPK1): > 10 µM; Avg 1 uM (average myocyte proliferation) [1]: * (<10% growth relative to blank myocyte growth without compound added.); Avg 3 uM (average myocyte proliferation) [1]: * (<10% growth relative to blank myocyte growth without compound added.); Avg 10 uM (average myocyte proliferation) [1]: *** (>50%)

How did the IC50 (human HIPK1) turn out when `CN1C(=O)/C(=C/c2ccc3c(c2)OCO3)N=C1N(C)c1ccccc1` [Example 3, (Z)-5-(benzo[d][1,3]dioxol-5-ylmethylene)-3-methyl-2-(methyl(phenyl)amino)-3,5-dihydro-4H-imidazol-4-one] was run?
The IC50 was greater than 10 µM.

And the “Avg 1 uM (average myocyte proliferation)” value [1]?
Its value is “* (<10% growth relative to blank myocyte growth without compound added.)”.

What about the “Avg 3 uM (average myocyte proliferation)” value [1] of the same compound?
Its value is “* (<10% growth relative to blank myocyte growth without compound added.)”.

What about the “Avg 10 uM” value [1] of the same compound?
Its value is “* (<10% growth relative to blank myocyte growth without compound added.)”.

Which IC50 (human HIPK1) does the source give for `O=C1NC(Nc2ccccc2)=N/C1=C\c1ccc2ncsc2c1` [Example 6, (Z)-5-(benzo[d]thiazol-6-ylmethylene)-2-(phenylamino)-3,5-dihydro-4H-imidazol-4-one] here?
The IC50 was 0.1 to 1 µM.

What about the “Avg 1 uM (average myocyte proliferation)” value [1] of the same compound?
The value was “*** (>50%)”.

And the “Avg 3 uM (average myocyte proliferation)” value [1]?
Its value is “** (10%-50%)”.

And the “Avg 10 uM” value [1]?
The value was “* (<10% growth relative to blank myocyte growth without compound added.)”.

How did the IC50 (human HIPK1) turn out when `CN(C1=N/C(=C\c2ccc3ncsc3c2)C(=O)N1)c1ccccc1` [Example 7, (Z)-5-(benzo[d]thiazol-6-ylmethylene)-2-(methyl(phenyl)amino)-3,5-dihydro-4H-imidazol-4-one] was run?
The IC50 was 1 to 10 µM.

What about the “Avg 1 uM (average myocyte proliferation)” value [1] of the same compound?
Its value is “* (<10% growth relative to blank myocyte growth without compound added.)”.

What about the “Avg 3 uM (average myocyte proliferation)” value [1] of the same compound?
Its value is “** (10%-50%)”.

And the “Avg 10 uM” value [1]?
Its value is “* (<10% growth relative to blank myocyte growth without compound added.)”.

With `CN(C1=N/C(=C\c2ccc3c(c2)OCCO3)C(=O)N1)c1ccccc1` [Example 8, (Z)-5-((2,3-dihydrobenzo[b][1,4]dioxin-6-yl)methylene)-2-(methyl(phenyl)amino)-3,5-dihydro-4H-imidazol-4-one] as the compound, how does the IC50 (human HIPK1) read?
The IC50 was greater than 10 µM.

What about the “Avg 1 uM (average myocyte proliferation)” value [1] of the same compound?
The value was “** (10%-50%)”.

What about the “Avg 3 uM (average myocyte proliferation)” value [1] of the same compound?
Its value is “* (<10% growth relative to blank myocyte growth without compound added.)”.

What about the “Avg 10 uM” value [1] of the same compound?
The value was “** (10%-50%)”.

Which results are given for `O=C1NC(Nc2ccccc2)=N/C1=C\c1ccc(=O)[nH]c1` [Example 9, (Z)-5-((5-oxo-2-(phenylamino)-1,5-dihydro-4H-imidazol-4-ylidene)methyl)pyridin-2(1H)-one]?
IC50 (human HIPK1): > 10 µM; Avg 1 uM (average myocyte proliferation) [1]: * (<10% growth relative to blank myocyte growth without compound added.); Avg 3 uM (average myocyte proliferation) [1]: ** (10%-50%); Avg 10 uM (average myocyte proliferation) [1]: ** (10%-50%)

`O=C1NC(N(CC2CC2)c2ccccc2)=N/C1=C\c1ccc2c(c1)OCO2` [Example 10, (Z)-5-(benzo[d][1,3]dioxol-5-ylmethylene)-2-((cyclopropylmethyl)(phenyl)amino)-3,5-dihydro-4H-imidazol-4-one] was tested. Which IC50 (human HIPK1) did it give?
Its IC50 is greater than 10 µM.

And the “Avg 1 uM (average myocyte proliferation)” value [1]?
Its value is “** (10%-50%)”.

What about the “Avg 3 uM (average myocyte proliferation)” value [1] of the same compound?
Its value is “* (<10% growth relative to blank myocyte growth without compound added.)”.

What about the “Avg 10 uM” value [1] of the same compound?
Its value is “*** (>50%)”.

How did the IC50 (human HIPK1) turn out when `CN(CC1CC1)C1=N/C(=C\c2ccc3c(c2)OCO3)C(=O)N1` [Example 11, (Z)-5-(benzo[d][1,3]dioxol-5-ylmethylene)-2-((cyclopropylmethyl)(methyl)amino)-3,5-dihydro-4H-imidazol-4-one] was run?
Its IC50 is greater than 10 µM.

What about the “Avg 1 uM (average myocyte proliferation)” value [1] of the same compound?
The value was “** (10%-50%)”.

And the “Avg 3 uM (average myocyte proliferation)” value [1]?
Its value is “** (10%-50%)”.

What about the “Avg 10 uM” value [1] of the same compound?
The value was “*** (>50%)”.

What does the source list for `COc1ccc(N(C)C2=N/C(=C\c3ccc4c(c3)OCO4)C(=O)N2)cc1` [Example 12, (Z)-5-(benzo[d][1,3]dioxol-5-ylmethylene)-2-((4-methoxyphenyl)(methyl)amino)-3,5-dihydro-4H-imidazol-4-one]?
IC50 (human HIPK1): > 10 µM; Avg 1 uM (average myocyte proliferation) [1]: * (<10% growth relative to blank myocyte growth without compound added.); Avg 3 uM (average myocyte proliferation) [1]: ** (10%-50%)

For `O=C1NC(N(CCO)c2ccccc2)=N/C1=C\c1ccc2c(c1)OCO2` [Example 13, (Z)-5-(benzo[d][1,3]dioxol-5-ylmethylene)-2-((2-hydroxyethyl)(phenyl)amino)-3,5-dihydro-4H-imidazol-4-one], which IC50 (human HIPK1) is on record?
Its IC50 is 1 to 10 µM.

And the “Avg 1 uM (average myocyte proliferation)” value [1]?
The value was “* (<10% growth relative to blank myocyte growth without compound added.)”.

What about the “Avg 3 uM (average myocyte proliferation)” value [1] of the same compound?
The value was “** (10%-50%)”.

For `O=C1NC(Nc2ccccc2)=N/C1=C\c1ccc2scnc2c1` [Example 14, (Z)-5-(benzo[d]thiazol-5-ylmethylene)-2-(phenylamino)-3,5-dihydro-4H-imidazol-4-one], which IC50 (human HIPK1) is on record?
The IC50 was greater than 10 µM.

And the “Avg 1 uM (average myocyte proliferation)” value [1]?
The value was “* (<10% growth relative to blank myocyte growth without compound added.)”.

And the “Avg 3 uM (average myocyte proliferation)” value [1]?
The value was “** (10%-50%)”.
